One experiment deals with hTRPA1 channel (Homo sapiens, UniProt O75762). In words: Inhibition of TRPA1 channel activity. In kind it is cell-based. The settings on record: procedure similar to WO 2007/073505; read-out: IC50 against hTRPA1 channel activity. The protocol: Compound 1 was tested using a procedure similar to the procedure outlined in WO 2007/073505.
In experiment [1] the test system is formalin-induced pain behavior. In words: Formalin-induced pain behavior in rats. The class given is in vivo, rat. The settings on record: 50 mg/kg oral, one hour prior to intraplantar formalin (3%), observed for 2 minutes following injection. The protocol:
Compound 1 was tested in the formalin-induced pain test reported by Dubuisson et al., Pain 1977 December; 4(2):161-74. The compound was dosed orally in rats (8 animals) at 50 mg/kg, one hour prior to intraplantar formalin (3%) injection. The control group (8 animals) received vehicle (30% Captisol® in water, pH 10). […] The duration of pain behavior in the treated animals was reduced by about 30%, compared to the animals who received vehicle.

Experiment [2] has as its system AITC-induced pain behavior. In words: AITC-induced pain behavior (automated flinch detecting system) in the rat. The class given is in vivo. The settings on record: 50 mg/kg oral gavage. Here is the method:
Compound 1 was tested in the automated flinch detecting system described by Yaksh et al., J. Appl. Physiol 90: 2386-2402 (2001). A small metal band was loosely placed around each rat's left hind paw. The fasted rats were dosed (50 mg/kg) via oral gavage with Compound 1 (8 animals) or vehicle (8 animals, 30% Captisol® in water, pH 10). The rats were acclimatized in the test chamber prior to allyl isothiocyanate (AITC) administration. AITC was then injected into the paw of each animal, and the animal was promptly returned to the chamber. The number of paw flinches was monitored for 60 minutes. After 10 minutes, animals receiving vehicle flinched a total of about 350 times, while the treated animals flinched about 200 times. After 60 minutes the animals that had received vehicle prior to AITC administration flinched about 1950 times, while the compound pre-treated animals flinched about 1000 times.

Sequence of hTRPA1 channel (O75762 whole entry): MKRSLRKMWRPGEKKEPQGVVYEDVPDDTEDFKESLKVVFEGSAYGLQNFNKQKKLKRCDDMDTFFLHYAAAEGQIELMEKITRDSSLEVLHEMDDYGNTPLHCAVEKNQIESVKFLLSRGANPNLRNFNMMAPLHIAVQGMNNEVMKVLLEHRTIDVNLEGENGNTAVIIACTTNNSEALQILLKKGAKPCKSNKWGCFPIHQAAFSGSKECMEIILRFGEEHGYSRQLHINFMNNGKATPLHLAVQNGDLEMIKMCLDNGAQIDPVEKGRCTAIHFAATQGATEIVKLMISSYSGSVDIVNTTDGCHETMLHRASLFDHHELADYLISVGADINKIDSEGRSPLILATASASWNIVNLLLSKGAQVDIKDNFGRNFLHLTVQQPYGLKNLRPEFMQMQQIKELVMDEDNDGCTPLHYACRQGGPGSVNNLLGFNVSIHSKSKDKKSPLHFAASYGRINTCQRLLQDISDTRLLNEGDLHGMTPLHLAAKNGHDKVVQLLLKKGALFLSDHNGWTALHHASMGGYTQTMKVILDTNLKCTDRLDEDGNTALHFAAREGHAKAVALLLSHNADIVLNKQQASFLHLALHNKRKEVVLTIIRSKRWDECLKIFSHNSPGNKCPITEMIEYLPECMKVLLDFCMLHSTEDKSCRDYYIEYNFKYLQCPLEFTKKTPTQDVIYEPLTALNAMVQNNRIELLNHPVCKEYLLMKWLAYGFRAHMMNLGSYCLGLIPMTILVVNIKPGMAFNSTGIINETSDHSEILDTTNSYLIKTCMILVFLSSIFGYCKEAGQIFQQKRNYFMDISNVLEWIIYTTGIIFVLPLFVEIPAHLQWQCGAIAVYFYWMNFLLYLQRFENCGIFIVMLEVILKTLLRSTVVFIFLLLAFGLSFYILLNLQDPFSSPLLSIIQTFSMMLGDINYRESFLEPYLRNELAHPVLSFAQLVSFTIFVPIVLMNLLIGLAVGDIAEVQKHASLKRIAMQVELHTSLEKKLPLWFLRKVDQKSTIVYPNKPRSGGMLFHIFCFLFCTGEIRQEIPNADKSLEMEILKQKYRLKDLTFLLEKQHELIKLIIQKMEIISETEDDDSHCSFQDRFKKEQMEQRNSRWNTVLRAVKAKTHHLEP

For `C[C@H]1CCCN1c1ccc(-c2csc(NC(=O)Cn3cnc4c3c(=O)n(C)c(=O)n4C)n2)cc1F` [Compound 1], the IC50 on hTRPA1 channel was about 4 nM. In addition, the “reduction of duration of pain behavior compared to vehicle” value in experiment [1] was “about 30%”. Also, in experiment [2] (fasted rats, AITC injected into paw, after 10 minutes (vehicle about 350)), the “total number of paw flinches after 10 minutes” value was “about 200 times”. Also, the “total number of paw flinches after 60 minutes” value in experiment [2] (fasted rats, AITC injected into paw, after 60 minutes (vehicle about 1950)) is listed as “about 1000 times”. In addition, in experiment [2] (rats), the “effect on AITC-induced pain behavior” value was “able to reduce the AITC-induced pain behavior”.

Broadly, the IC50 is the concentration needed to halve the response being measured.
